From patent US20240116985A1, “STAPLED PEPTIDES AND METHODS THEREOF” (priority 2020, published 2024)
pIC50: −log10 of the molar value. ≈ marks a conversion by molar mass, not a printed value. Like-named read-outs stand apart in the source and are kept apart here.

How the values were obtained:
[1] = target: T1, full-length beta-Catenin (Uniprot ID P35222) (Homo sapiens, UniProt P35222); test: Fluorescence polarization IC50 (beta-catenin / 5FAM-TCF4 10-53 competition); type: binding; details: fluorescence polarization; read-out: beta-Catenin FP IC50
T1 construct: 10 nM full-length beta-Catenin (Uniprot ID P35222)
T1 sequence (P35222 1-781): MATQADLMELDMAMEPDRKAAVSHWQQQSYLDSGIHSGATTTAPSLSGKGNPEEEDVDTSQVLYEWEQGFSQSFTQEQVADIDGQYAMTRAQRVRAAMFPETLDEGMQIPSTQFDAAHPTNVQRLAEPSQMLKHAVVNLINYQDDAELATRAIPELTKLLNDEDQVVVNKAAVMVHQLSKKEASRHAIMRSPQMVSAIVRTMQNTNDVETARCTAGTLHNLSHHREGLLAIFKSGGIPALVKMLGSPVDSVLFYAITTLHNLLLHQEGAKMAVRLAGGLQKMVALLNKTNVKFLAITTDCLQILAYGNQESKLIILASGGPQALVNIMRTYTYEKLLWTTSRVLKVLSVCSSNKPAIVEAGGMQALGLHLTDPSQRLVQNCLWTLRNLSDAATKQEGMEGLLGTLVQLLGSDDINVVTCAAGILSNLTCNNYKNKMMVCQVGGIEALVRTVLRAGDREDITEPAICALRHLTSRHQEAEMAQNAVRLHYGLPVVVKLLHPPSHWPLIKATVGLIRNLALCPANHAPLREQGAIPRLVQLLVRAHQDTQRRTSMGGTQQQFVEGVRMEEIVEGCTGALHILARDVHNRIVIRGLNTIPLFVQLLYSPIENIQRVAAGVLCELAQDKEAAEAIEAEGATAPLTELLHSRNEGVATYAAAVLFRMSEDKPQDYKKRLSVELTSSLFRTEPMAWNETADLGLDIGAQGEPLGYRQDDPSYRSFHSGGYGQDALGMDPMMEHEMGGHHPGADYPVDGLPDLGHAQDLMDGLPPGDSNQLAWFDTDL

[2] = target: T2, beta-catenin/TCF4 engagement (Homo sapiens, UniProt P35222); test: Nano-BRET target engagement assay (B-cat-Halo & TCF4-Luc in HEK293 cells); type: cell-based; details: absolute IC50; read-out: NanoBRET Abs IC50
T2 construct: expressed in transfected cells; host or cells: HEK293
T2 sequence (P35222 1-781): T1 sequence (P35222 1-781)

[3] = Solubility in PBS; type: physicochemical
Procedure, shortened: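 Steps: ultracentrifuge the peptide PBS solution, inject the supernatant on HPLC, inject a 50 μM peptide DMSO solution as reference, then calculate solubility as area ratio (PBS/DMSO) × 50 uM.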

| pIC50 [1] | pIC50 [2] | Solubility ([3]; Solubility (uM)) [µM] | Solubility [3] [µM] | SMILES |
| --- | --- | --- | --- | --- |
| 7.66 | < 4.70 | 46 (≈ 88 µg/mL) |  | CC(=O)N1CCC[C@]12CC=CCCCC1(CCCC=CCCCOC(=O)N3CC[C@@](C(=O)N[C@@H](Cc4ccccc4Cl)C(=O)N[C@@H](Cc4csc5ccccc45)C(=O)N[C@@H](C(N)=O)[C@H](C)O)(C3)NC(=O)[C@H](CO)NC(=O)[C@H](Cc3ccccc3)NC(=O)[C@H](C)NC(=O)[C@H](C)NC(=O)[C@H](CC(=O)O)NC(=O)[C@H](CC(=O)O)NC1=O)NC(=O)[C@H](Cc1ccccc1)NC(=O)[C@H](CC(=O)O)NC2=O (stereo partly drawn) [I-1142, Ac-PL3-Asp-Phe-B5-Asp-Asp-Ala-Ala-Phe-Ser-PyrS2-2C1F-BztA-dThr-NH2] |
| 7.85 | < 4.70 | 42 (≈ 84.3 µg/mL) |  | COCCOCCC(=O)N1CCC[C@]12CC=CCCCC1(CCCC=CCCCOC(=O)N3CC[C@@](C(=O)N[C@@H](Cc4ccccc4Cl)C(=O)N[C@@H](Cc4csc5ccccc45)C(=O)N[C@@H](C(N)=O)[C@H](C)O)(C3)NC(=O)[C@H](CC(N)=O)NC(=O)[C@H](Cc3ccccc3)NC(=O)[C@H](C)NC(=O)[C@H](C)NC(=O)[C@H](CC(=O)O)NC(=O)[C@H](CC(=O)O)NC1=O)NC(=O)[C@H](CC(C)(C)C)NC(=O)[C@H](CC(=O)O)NC2=O (stereo partly drawn) [I-1253, mPEG2-PL3-Asp-Npg-B5-Asp-Asp-Ala-Ala-Phe-Asn-PyrS2-2C1F-BztA-dThr-NH2] |
| 7.44 | < 4.70 | 15 (≈ 29.3 µg/mL) |  | CC(=O)N1CCC[C@]12CC=CCCCC1(CCCC=CCCCOC(=O)N3CC[C@@](C(=O)N[C@@H](Cc4ccccc4Cl)C(=O)N[C@@H](Cc4csc5ccccc45)C(=O)N[C@@H](CO)C(N)=O)(C3)NC(=O)[C@H]([C@@H](C)O)NC(=O)[C@H](Cc3ccccc3)NC(=O)[C@H](CC(C)C)NC(=O)[C@H](C)NC(=O)[C@H](CC(=O)O)NC(=O)[C@H](CC(=O)O)NC1=O)NC(=O)[C@H](Cc1ccccc1)NC(=O)[C@H](CC(=O)O)NC2=O (stereo partly drawn) [I-1157, Ac-PL3-Asp-Phe-B5-Asp-Asp-Ala-Leu-Phe-Thr-PyrS2-2C1F-BztA-Ser-NH2] |
| 7.30 | 4.67 |  | 10 (≈ 19.9 µg/mL) | CC(=O)N1CCC[C@]12CC=CCCCC1(CCCC=CCCCOC(=O)N3CC[C@@](C(=O)N[C@@H](Cc4ccccc4Cl)C(=O)N[C@@H](Cc4csc5ccccc45)C(=O)N[C@@H](CCC(N)=O)C(N)=O)(C3)NC(=O)[C@H](CO)NC(=O)[C@H](Cc3ccccc3)NC(=O)[C@H](CC(C)C)NC(=O)[C@H](C)NC(=O)[C@H](CC(=O)O)NC(=O)[C@H](CC(=O)O)NC1=O)NC(=O)[C@H](CC1CCCCC1)NC(=O)[C@H](CC(=O)O)NC2=O (stereo partly drawn) [I-1148, Ac-PL3-Asp-Cha-B5-Asp-Asp-Ala-Leu-Phe-Ser-PyrS2-2C1F-BztA-Gln-NH2] |
| 8.05 | < 4.70 | 48 (≈ 93.8 µg/mL) |  | CC(=O)N1CCC[C@]12CC=CCCCC1(CCCC=CCCCOC(=O)N3CC[C@@](C(=O)N[C@@H](Cc4ccccc4C(N)=O)C(=O)N[C@@H](Cc4csc5ccccc45)C(=O)N[C@@H](CCC(N)=O)C(N)=O)(C3)NC(=O)[C@H](CC(N)=O)NC(=O)[C@H](Cc3ccccc3)NC(=O)[C@H](C)NC(=O)[C@H](C)NC(=O)[C@H](CC(=O)O)NC(=O)[C@H](CC(=O)O)NC1=O)NC(=O)[C@H](CC(C)(C)C)NC(=O)[C@H](CC(=O)O)NC2=O (stereo partly drawn) [I-1314, Ac-PL3-Asp-Npg-B5-Asp-Asp-Ala-Ala-Phe-Asn-PyrS2-2cbmF-BztA-Gln-NH2] |
| 8.22 | 4.93 | 48 (≈ 95.6 µg/mL) |  | CC(=O)N1CCC[C@]12CC=CCCCC1(CCCC=CCCCOC(=O)N3CC[C@@](C(=O)N[C@@H](Cc4ccccc4Br)C(=O)N[C@@H](Cc4csc5ccccc45)C(=O)N[C@@H](CCC(N)=O)C(N)=O)(C3)NC(=O)[C@H](CC(N)=O)NC(=O)[C@H](Cc3ccccc3)NC(=O)[C@H](C)NC(=O)[C@H](C)NC(=O)[C@H](CC(=O)O)NC(=O)[C@H](CC(=O)O)NC1=O)NC(=O)[C@H](CC(C)(C)C)NC(=O)[C@H](CC(=O)O)NC2=O (stereo partly drawn) [I-1323, Ac-PL3-Asp-Npg-B5-Asp-Asp-Ala-Ala-Phe-Asn-PyrS2-2BrF-BztA-Gln-NH2] |
